Reference: patent US20160038482A1 (CHANRX CORPORATION, priority 2013, published 2016)
Where two headings read alike, the source gives them in different places.

Assays:
[1] = Example 5: daily doses for 7 days; type: in vivo, human
[2] = Example 3: daily doses for 11 consecutive days, PK and hemodynamics; type: in vivo, human; details: for half-life / Cmax: human, plasma, 11 days; for half-life: read-out: PK Data (Mean +/− SD) T1/2 (converted); for Cmax: read-out: PK Data (Mean +/− SD) CMax
[3] = multiple daily dosing: hemodynamic effects; type: in vivo, human
Description: However, control and prevention of events of cardiac arrhythmia are important to these patients to prevent future re-occurrences and the deleterious effects and morbidity.

[4] = Example 4: daily doses for 14 days in healthy patients; type: in vivo, human
Protocol: A standardized meal was served 15 minutes prior to each dosing.

[5] = tested on: cardiac arrhythmia; type: in vivo, human; details: second patient, supraventricular tachycardia, 2 x 200 mg, after first dose
[6] = Example 6: adverse events; type: in vivo, human
Description: The vanoxerine or identical appearing placebo was randomly assigned and administered in a double-blinded fashion.

[7] = Example 1: plasma concentrations of vanoxerine and metabolites after a 300 mg dose; type: in vivo, human; details: low concentration group, any time point
Protocol: Each patient gave samples before administration of their dose, and then again at nine further time points, 30 minutes after administration, 1, 2, 3, 4, 6, 8, 12, and 24 hours post administration.

[8] = pharmacokinetic parameters from tests in dogs; type: in vivo; details: dog, plasma
Description: Vanoxerine is primarily eliminated from the body in urine, bile, and feces. Indeed, a substantial amount of the drug is expelled, unabsorbed into the feces. […] However, the long half-life of the drug may actually be utilized to minimize the continuous or regular dosing of the drug.

[9] = healthy subjects, cited from earlier work
[10] = tested on: recent onset symptomatic AF/AFL; test: Example 6: conversion of recent onset AF/AFL, placebo-controlled double-blind; type: in vivo, human; details: for Conversion of Atrial Flutter, Conversion, %: pure atrial flutter N=4, any time within 24 hours; for conversion: all doses
Protocol: The vanoxerine or identical appearing placebo was randomly assigned and administered in a double-blinded fashion. Definition of “pure” atrial flutter: only Atrial Flutter (no AF) seen at -30, -15, and 0 time points. Conversion at any time within 24 hours.

time to steady state levels ([1]; 50, 100, and 150 mg daily, all patients): within one week
plasma levels detectability ([2]; 25 mg daily): not detectable after 8 hours
plasma levels detectability ([2]; 50, 75, and 100 mg daily): detectable at 24 hours
time to steady state ([2]; 50, 75, and 100 mg daily): ≤ 8 days
PK linearity ([2]; across 50, 75 and 100 mg doses): linear and dose proportional
half-life ([2]; 50 mg daily): 49.4 h
Cmax ([2]; 75 mg daily): 27.4 ng/mL
half-life ([2]; 75 mg daily): 52.5 h
Cmax ([2]; 100 mg daily): 40.2 ng/mL
half-life ([2]; 100 mg daily): 15.4 h
Cmax, ss, and AUC0-24ss inter-subject variability ([2]; steady state): 55-85%
half-life of the drug ([2]; when daily doses are given): increased half-life
time to steady state serum levels ([4]; 25, 75, and 125 mg daily for 14 days): 9 to 11 days
plasma levels (highest reached) [7]: ~40 ng/mL
Tmax ([8]; oral): ~3 h
bioavailability ([8]; oral, read-out: systemic bioavailability): 23%
half-life ([8]; read-out: T1/2 (elimination from the plasma) (converted)): 22 h
SMILES: Fc1ccc(C(OCCN2CCN(CCCc3ccccc3)CC2)c2ccc(F)cc2)cc1 [Vanoxerine, 1-[2-[bis(4-fluorophenyl)methoxy]ethyl]-4-(3-phenylpropyl)piperazine]
systolic blood pressure and heart rate ([1]; 100 mg daily for 7 days): increases in systolic blood pressure and heart rate were seen
systolic blood pressure and heart rate ([1]; 150 mg daily for 7 days): increases in systolic blood pressure and in heart rate
heart rate and systolic blood pressure ([2]; 75 and 100 mg daily doses): increased slightly in most subjects
heart rate and systolic blood pressure ([3]; daily use over 7, 10, and 14 days, 75, 100, 125, and 150 mg a day): increased heart rate and systolic blood pressure
heart rate and systolic blood pressure ([3]; multiple dosing, several subjects): dose-related increases in heart rate and systolic blood pressure
adverse events ([4]; 25, 75, and 125 mg daily for 14 days, healthy patients, after standardized meal): No significant adverse events
steady state serum levels, dose proportionality ([4]; higher doses compared with the lower doses): disproportionately and statistically greater levels at higher doses
time of conversion to normal sinus rhythm [5]: about 6 hours
Adverse events: number of AEs reported ([6]; 200 mg (22)): 8 AEs
Adverse events: number of SAEs ([6]; 200 mg (22)): 1 SAE
Adverse events: subjects reporting, N (%) ([6]; 200 mg (22)): 4 (18%) subjects
Adverse events: number of AEs reported ([6]; 300 mg (25)): 12 AEs
Adverse events: subjects reporting, N (%) ([6]; 300 mg (25)): 7 (28%) subjects
Adverse events: number of AEs reported ([6]; 400 mg (25)): 23 AEs
Adverse events: number of SAEs ([6]; 400 mg (25)): 1 SAE
Adverse events: subjects reporting, N (%) ([6]; 400 mg (25)): 10 (40%) subjects
1:1 AFL post dose ([6]; 200, 300 and 400 mg): No 1:1 AFL seen post dose in any subject
proarrhythmia ([6]; 200, 300 and 400 mg): absence of proarrhythmia
tolerability ([6]; 200, 300 and 400 mg): well tolerated at all doses
side-effects ([9]; daily repetitive dose of 50 mg): no side-effects should be expected
side-effects ([9]; higher doses): concentration difficulties, increase systolic blood pressure, asthenia, and a feeling of drug influence
Percent conversion ([10]; 200 mg (22), 0-4 hr): 18%
Percent conversion ([10]; 200 mg (22), 0-8 hr): 45%
Percent conversion ([10]; 200 mg (22), 0-24 hr): 59%
improvement of conversion (percent increase in conversion over placebo) ([10]; 200 mg, 0-4 hours): 38%
improvement of conversion (percent increase in conversion over placebo) ([10]; 200 mg, 0-8 hours): 96%
improvement of conversion (percent increase in conversion over placebo) ([10]; 200 mg, 0-24 hours): 55%
Conversion of Atrial Flutter, Conversion, % ([10]; 200 mg): 50%
Percent conversion ([10]; 300 mg (25), 0-4 hr): 40%
Percent conversion ([10]; 300 mg (25), 0-8 hr): 52%
Percent conversion ([10]; 300 mg (25), 0-24 hr): 64%
improvement of conversion (percent increase in conversion over placebo) ([10]; 300 mg, 0-4 hours): 207%
improvement of conversion (percent increase in conversion over placebo) ([10]; 300 mg, 0-8 hours): 126%
improvement of conversion (percent increase in conversion over placebo) ([10]; 300 mg, 0-24 hours): 68%
Conversion of Atrial Flutter, Conversion, % ([10]; 300 mg): 75%
Percent conversion ([10]; 400 mg (25), 0-4 hr): 52%
Percent conversion ([10]; 400 mg (25), 0-8 hr): 76%
Percent conversion ([10]; 400 mg (25), 0-24 hr): 84%
improvement of conversion (percent increase in conversion over placebo) ([10]; 400 mg, 0-4 hours): 300%
improvement of conversion (percent increase in conversion over placebo) ([10]; 400 mg, 0-8 hours): 230%
improvement of conversion (percent increase in conversion over placebo) ([10]; 400 mg, 0-24 hours): 121%
Conversion of Atrial Flutter, Conversion, % ([10]; 400 mg): 75%
conversion ([10]; at 12 hours): greater than 50%
conversion ([10]; at about 7 hours): greater than 40%
conversion ([10]; at about 16 hours): ~60%
conversion to sinus rhythm of recent onset symptomatic AF/AFL, dose dependence ([10]; doses of 200, 300 and 400 mg): highly statistically significant dose dependent increase
